# What was measured:
# human CCK-A receptor [1] = target: T1, human CCK-A receptor (Homo sapiens, UniProt P32238); assay: displacement of [125I]-CCK from 3T3 cells expressing the human CCK-A recombinant receptor; assay type: binding; conditions: read-out: affinity for the human CCK-A receptor (IC50)
# T1 construct: expressed in transfected cells; host or cells: 3T3 cells
# T1 sequence (P32238 1-428): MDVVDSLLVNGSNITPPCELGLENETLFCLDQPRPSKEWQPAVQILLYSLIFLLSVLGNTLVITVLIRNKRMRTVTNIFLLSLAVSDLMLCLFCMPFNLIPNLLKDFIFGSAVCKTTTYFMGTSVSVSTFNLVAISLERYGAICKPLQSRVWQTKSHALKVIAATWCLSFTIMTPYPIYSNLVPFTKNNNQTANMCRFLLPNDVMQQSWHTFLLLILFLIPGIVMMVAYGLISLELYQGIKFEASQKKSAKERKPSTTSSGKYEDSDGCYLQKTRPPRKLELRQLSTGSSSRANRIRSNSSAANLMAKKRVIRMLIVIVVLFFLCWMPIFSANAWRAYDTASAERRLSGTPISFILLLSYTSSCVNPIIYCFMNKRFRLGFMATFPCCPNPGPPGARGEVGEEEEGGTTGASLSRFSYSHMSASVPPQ
# [2] = test system: Female Swiss albino CD1 mice; assay: gastric drainage (charcoal meal) in mice, intraperitoneal administration; assay type: in vivo; conditions: intraperitoneally
# Procedure: The compounds of the present invention were also studied in vivo, by evaluating their capacity to block gastric drainage in mice.
# A study of the agonist effect of the compounds on gastric drainage was carried out as follows. Female Swiss albino CD1 mice (20-25 g) are placed on a solid fast for 18 hours. On the day of the experiment, the products (as a suspension in 1% carboxymethyl cellulose solution or in 0.6% methylcellulose solution) or the corresponding vehicle are administered intraperitoneally, 30 minutes before administering a charcoal meal (0.3 ml per mouse of a suspension in water of 10% charcoal powder, 5% gum arabic and 1% carboxymethyl cellulose or 0.6% methyl cellulose). The mice are sacrificed five minutes later by cervical dislocation, and gastric drainage is defined as the presence of charcoal in the intestine beyond the pyloric sphincter (Eur. J. Pharmacol., 1993, 232, 13-19).
# human CCK-B receptor = target: T2, human CCK-B receptor (Homo sapiens, UniProt P32239); assay: in vitro binding to the human CCK-B receptor; conditions: read-out: affinity for the human CCK-B receptor (IC50)
# T2 sequence (P32239 1-447): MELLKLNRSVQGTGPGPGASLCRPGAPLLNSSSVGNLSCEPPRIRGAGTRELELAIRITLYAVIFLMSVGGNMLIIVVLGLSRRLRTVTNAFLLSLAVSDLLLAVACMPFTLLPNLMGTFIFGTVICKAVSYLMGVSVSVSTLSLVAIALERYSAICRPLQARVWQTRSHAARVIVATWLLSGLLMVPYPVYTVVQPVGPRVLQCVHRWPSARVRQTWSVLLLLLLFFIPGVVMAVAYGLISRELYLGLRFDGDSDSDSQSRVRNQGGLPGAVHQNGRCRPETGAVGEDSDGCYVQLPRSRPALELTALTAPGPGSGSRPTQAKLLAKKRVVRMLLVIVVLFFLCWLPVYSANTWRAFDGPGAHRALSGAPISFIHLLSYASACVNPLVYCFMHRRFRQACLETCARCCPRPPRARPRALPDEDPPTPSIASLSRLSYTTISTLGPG
# human CCK-A receptor [3] = target: T1, human CCK-A receptor; assay: mobilization of intracellular calcium ([Ca++]i, Fura-2) in 3T3 cells expressing the human CCK-A receptor; assay type: cell-based
# Procedure: The calcium concentration [Ca^++]i is evaluated with Fura-2 as fluorescent probe, by the double excitation wavelength method. The ratio of the fluorescence emitted at two wavelengths gives the concentration of [Ca^++]i after calibration (Grynkiewicz G. et al., J. Biol. Chem., 1985, 260, 3440-3450).
compound,measurement,setting,value
"COc1cc(-c2nc(NC(=O)c3cc4cc(C)cc(C)c4n3CC(=O)O)sc2CCC2CCCCC2)c(OC)cc1Cl.O=C(O)C(F)(F)F [Example 5, 2-(4-(4-Chloro-2,5-dimethoxyphenyl)-5-(2-cyclohexylethyl)-2-thiazolylcarbamoyl)-5,7-dimethyl-1-indoleacetic acid trifluoroacetic acid.]",IC50,human CCK-A receptor [1],0.56 nM
same,ED50 on gastric drainage,[2],1.9 µg/kg
same,effect on gastric drainage,[2],completely inhibits gastric drainage
same,IC50,human CCK-B receptor,162 nM
same,agonist behaviour on intracellular calcium relative to CCK,human CCK-A receptor [3]; increase to the same level as CCK itself,total agonist
same,EC50,"human CCK-A receptor [3]; read-out: EC50 (effective concentration which induces 50% of the effect of CCK) for increase in intracellular calcium concentration, 3T3 cells expressing human CCK-A receptor",1.27 nM
